In patent US6063926A, “Substituted oximes as neurokinin antagonists” (Schering Corporation, priority 1998, dated 2000):

Experiments:
NK1 receptor = NK1 receptor (Homo sapiens, UniProt P25103); experiment: neurokinin receptor binding assay, NK1 (Ki); conditions: read-out: Ki (NK1)
Text: (§1) The in vitro and in vivo activity of the compounds of formula I can be determined by various procedures known in the art, such as a test for their ability to inhibit the activity of the NK1 agonist Substance P, an isolated hamster trachea NK2 assay, a test of the effect of NK1 antagonists on Substance P-induced airway microvascular leakage, measurement of NK2 activity in vivo in guinea pigs, measurement of bronchoconstriction due to NKA, and neurokinin receptor binding assay(s). Typical procedures are described in WO96/34857, published Nov. 7, 1996. NK3 activity is determined by following a procedure similar to that described in the literature, e.g., Molecular Pharmacol., 48 (1995), p. 711-716.
(§2) % Inhibition is the difference between the percent of maximum specific binding (MSB) and 100%. The percent of MSB is defined by the following equation, wherein "dpm" is disintegrations per minute: [formula]
(§3) Using the test procedures described above, the following 35 data (Ki) were obtained for exemplified compounds: […]

NK2 receptor = target: T1, NK2 receptor (Homo sapiens, UniProt P21452); experiment: neurokinin receptor binding assay, NK2 (Ki); conditions: read-out: Ki (NK2)
T1 sequence (P21452 1-398): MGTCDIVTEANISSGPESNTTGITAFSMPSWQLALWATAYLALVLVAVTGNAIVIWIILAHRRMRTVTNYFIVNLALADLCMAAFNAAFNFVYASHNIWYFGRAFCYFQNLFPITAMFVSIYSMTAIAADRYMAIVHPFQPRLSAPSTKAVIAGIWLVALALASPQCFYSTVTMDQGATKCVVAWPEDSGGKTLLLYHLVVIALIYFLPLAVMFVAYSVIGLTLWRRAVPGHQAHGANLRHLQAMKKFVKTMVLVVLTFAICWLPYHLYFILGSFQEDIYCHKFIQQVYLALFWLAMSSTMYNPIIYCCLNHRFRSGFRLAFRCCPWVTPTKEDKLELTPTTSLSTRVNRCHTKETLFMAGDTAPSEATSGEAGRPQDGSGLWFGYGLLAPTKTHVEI
Text: as §1, §2, §3

NK1 receptor, sequence (P25103 whole entry): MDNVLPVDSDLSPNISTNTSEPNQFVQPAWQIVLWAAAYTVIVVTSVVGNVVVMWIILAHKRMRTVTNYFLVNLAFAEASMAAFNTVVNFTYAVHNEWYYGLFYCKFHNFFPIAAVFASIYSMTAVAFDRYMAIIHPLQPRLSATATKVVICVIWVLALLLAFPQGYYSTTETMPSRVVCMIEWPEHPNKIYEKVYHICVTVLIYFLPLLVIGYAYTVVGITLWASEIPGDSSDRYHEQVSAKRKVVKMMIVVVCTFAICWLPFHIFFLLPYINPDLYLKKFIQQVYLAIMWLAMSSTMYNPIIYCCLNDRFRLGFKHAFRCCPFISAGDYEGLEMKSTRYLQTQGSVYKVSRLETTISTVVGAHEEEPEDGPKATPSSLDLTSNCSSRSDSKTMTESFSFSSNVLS

Row | SMILES | Ki (NK1 receptor) | Ki (NK2 receptor)
1 | CON=C(CN(C)C(=O)c1cc(Cl)cc(Cl)c1)C(CCN1CCC(N2CCCC(CC(=O)N3CCC(OC)CC3)C2=O)CC1)c1ccc(Cl)c(Cl)c1 (stereo not drawn) [Example 25] | 0.9 nM | 0.7 nM
2 | CON=C(CN(C)C(=O)c1cc(C)cc(Cl)c1)C(CCN1CCC(N2CCCCC2=O)CC1)c1ccc(Cl)c(Cl)c1 (stereo not drawn) [Example 26] | 1 nM | 1.3 nM
3 | CON=C(CN(C)C(=O)c1cc(C)cc(Cl)c1)C(CCN1CCC(N2CCCC(CC(=O)N(C)C)C2=O)CC1)c1ccc(Cl)c(Cl)c1 (stereo not drawn) [Example 27] | 0.7 nM | 1.2 nM
4 | CCN(CC(=NOC)C(CCN1CCC(N2CCCC(CC(=O)NC)C2=O)CC1)c1ccc(Cl)c(Cl)c1)C(=O)c1cc(Cl)cc(Cl)c1 (stereo not drawn) [Example 28B] | 0.8 nM | 1 nM
5 | CCN(CC(=NOC)C(CCN1CCC(N2CCC[C@H](CC(N)=O)C2=O)CC1)c1ccc(Cl)c(Cl)c1)C(=O)c1cc(Cl)cc(Cl)c1 (stereo partly drawn) [Example 28C] | 0.4 nM | 0.6 nM
6 | CNC(=O)CC1CCCN(C2CCN(CCC(C(CNC(=O)c3cc(Cl)cc(Cl)c3)=NOC)c3ccc(Cl)c(Cl)c3)CC2)C1=O (stereo not drawn) [Example 29B] | 5.2 nM | 1.3 nM
7 | CON=C(CNC(=O)c1cc(Cl)cc(Cl)c1)C(CCN1CCC(N2CCC[C@H](CC(N)=O)C2=O)CC1)c1ccc(Cl)c(Cl)c1 (stereo partly drawn) [Example 29C] | 2.6 nM | 0.7 nM
8 | CON=C(CN(C)C(=O)c1cc(C)nc(Cl)c1)C(CCN1CCC(O)(c2ccccc2)CC1)c1ccc(Cl)c(Cl)c1 (stereo not drawn) [Example 30A] | 1.4 nM | 1.9 nM
9 | Cc1cc(C(=O)N(C)CC(=NOCC(N)=NO)C(CCN2CCC(O)(c3ccccc3)CC2)c2ccc(Cl)c(Cl)c2)cc(Cl)n1 (stereo not drawn) [Example 31] | 0.4 nM | 1.8 nM
10 | CNC(=O)CC1CCCN(C2CCN(CCC(C(CN(C)C(=O)c3cc(C)cc(C)c3)=NOC)c3ccc(Cl)c(Cl)c3)CC2)C1=O (stereo not drawn) [Example 35] | 0.6 nM | 0.3 nM
11 | CON=C(CN(C)C(=O)c1cc(Cl)cc(Cl)c1)C(CCN1CCC(c2ccccc2[S+](C)[O-])CC1)c1ccc(Cl)c(Cl)c1 (stereo not drawn) [Example 36] | 0.8 nM | 1 nM
12 | CON=C(N)CON=C(CN(C)C(=O)c1cc(OC)c(OC)c(OC)c1)C(CCN1CCC(O)(c2ccccc2)CC1)c1ccc(Cl)c(Cl)c1 (stereo not drawn) [Example 37] | 0.7 nM | 0.7 nM
